These are literature values, as cited in US11123293B2, “Liposomal formulation for joint lubrication” (MOEBIUS MEDICAL LTD., priority 2017, dated 2021).

The conditions of data set [1]: pure phospholipid, literature value.
A further data set has as its system joints of OA patients. As to conditions: injection into joints of OA patients, without major side effects.
A further data set concerns rabbit's knee. As to conditions: solution, intra-articular injection into a rabbit's knee.

Several values for one entry are separate records, joined by “and”; a condition that tells them apart may be missing. Equal values may be shown once. Read-outs that look alike come from different tables or passages of the source.

For the compound `CCCCCCCCCCCCCCC(=O)OC[C@H](COP(=O)([O-])OCC[N+](C)(C)C)OC(=O)CCCCCCCCCCCCCC` [1,2-dipentadecanoyl-sn-glycero-3-phosphocholine], the Tm in data set [1] was 33.0 °C.

As for `CCCCCCCCCCCCC/C=C/[C@@H](O)[C@H](COP(=O)([O-])OCC[N+](C)(C)C)NC(=O)CCCCCCCCCCCCCCC` [D-erythro C16, N-palmitoyl-D-erythro-sphingosylphosphorylcholine], the results for the Tm in data set [1] and in data set [1] (listed as N-palmitoyl SM) were 41.0 °C and 41 °C, respectively.

Regarding `CCCCCCCCCCCCCC(=O)OC[C@H](COP(=O)([O-])OCC[N+](C)(C)C)OC(=O)CCCCCCCCCCCCC` [DMPC, 1,2-dimyristoyl-sn-glycero-3-phosphocholine], the Tm in data set [1] is 23 °C and ~24 °C.

On to `CCCCCCCCCCCCCC(=O)OC[C@H](COP(=O)(O)OCC(O)CO)OC(=O)CCCCCCCCCCCCC` (some centres unmarked) [DMPG, 1,2-dimyristoyl-sn-glycero-3-phosphorylglycerol], for which the Tm in data set [1] is 23 °C.

Consider `CCCCCCCCCCCCCCCC(=O)OC[C@H](COP(=O)([O-])OCC[N+](C)(C)C)OC(=O)CCCCCCCCCCCCCCC` [DPPC, 1,2-dipalmitoyl-sn-glycero-3-phosphocholine], for which the mobility improvement lasting entry in the data set on joints of OA patients is listed as “up to 14 weeks”. The Tm in data set [1] is 41 °C and 41.4 °C.

Turning to `CCCCCCCCCCCCCCCC(=O)OC[C@H](COP(=O)(O)OCC(O)CO)OC(=O)CCCCCCCCCCCCCCC` (some centres unmarked) [DPPG, 1,2-dipalmitoyl-sn-glycero-3-phosphorylglycerol], in data set [1], the Tm is 41 °C.

In the case of `CCCCCCCCCCCCCCCCCC(=O)OC[C@H](COP(=O)([O-])OCC[N+](C)(C)C)OC(=O)CCCCCCCCCCCCCCCCC` [DSPC, 1,2-distearoyl-sn-glycero-3-phosphocholine], the Tm in data set [1] was 55 °C.

Consider `OCC(O)CO` [glycerol], for which the “prevention of joint irritation” value in the data set with rabbit's knee is on record as “did not prevent irritation”.

As for `OC[C@@H](O)[C@@H](O)[C@H](O)[C@H](O)CO` [mannitol], the “prevention of joint irritation” value in the data set with rabbit's knee was “did not prevent irritation”.
